Measurements taken from patent publication US20140155376A1, “PYRROLOPYRAZINE KINASE INHIBITORS” (Hoffmann-La Roche Inc., priority 2010, published 2014).

Target: T1, JAK3 (recombinant human kinase domain; h-jak3(810-1124)) (Homo sapiens, UniProt P52333)
T1 construct: h-jak3(810- 1124)-sf9-c; made in house; host or cells: Sf9 insect cells
Experiment: Determination of IC50 of Janus Kinase (JAK) inhibition: JAK3, radioactive end-point assay with 33P-ATP
Format: biochemical
Settings: JAK3 kinase domain; ATP 1.5 uM, peptide 50 uM, 20 minutes, room temperature, 10% DMSO; read-out: Ic50 h-jak3(810-1124)-sf9-c:no additive

T1 sequence (P52333 810-1124): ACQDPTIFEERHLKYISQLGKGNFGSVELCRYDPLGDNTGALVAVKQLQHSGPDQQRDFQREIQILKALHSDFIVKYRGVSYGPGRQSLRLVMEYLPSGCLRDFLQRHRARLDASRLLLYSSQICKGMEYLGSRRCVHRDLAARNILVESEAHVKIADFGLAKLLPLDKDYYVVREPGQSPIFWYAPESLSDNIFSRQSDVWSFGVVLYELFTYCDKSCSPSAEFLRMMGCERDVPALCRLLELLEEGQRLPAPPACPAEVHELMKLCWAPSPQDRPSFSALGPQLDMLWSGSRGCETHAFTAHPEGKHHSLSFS

Structure (SMILES)	IC50
CC(C)NC(=O)c1c[nH]c2ncc(Oc3cccc(Cl)c3)nc12 [Example I-243, 2-(3-Chloro-phenoxy)-5H-pyrrolo[2,3-b]pyrazine-7-carboxylic acid isopropylamide]	310 nM
COCC(C)NC(=O)c1c[nH]c2ncc(C3CC3)nc12 (stereo not drawn) [Example I-9, 2-Cyclopropyl-5H-pyrrolo[2,3-b]pyrazine-7-carboxylic acid (2-methoxy-1-methyl-ethyl)-amide]	19.6 nM
CC(NC(=O)c1ccc(-c2cnc3[nH]cc(C(=O)N[C@@H](C)C(C)(C)C)c3n2)s1)c1ccc(F)cc1 (stereo partly drawn) [Example I-195, 2-{5-[1-(4-Fluoro-phenyl)-ethylcarbamoyl]-thiophen-2-yl}-5H-pyrrolo[2,3-b]pyrazine-7-carboxylic acid ((S)-1,2,2-trimethyl-propyl)-amide]	0.46 nM
CS(=O)(=O)N1CCC(CNC(=O)c2c[nH]c3ncc(C4CC4)nc23)C1 (stereo not drawn) [Example I-109, 2-Cyclopropyl-5H-pyrrolo[2,3-b]pyrazine-7-carboxylic acid (1-methanesulfonyl-pyrrolidin-3-ylmethyl)-amide]	231 nM
CC(=O)N1CCCC(CNC(=O)c2c[nH]c3ncc(C4CC4)nc23)C1 (stereo not drawn) [Example I-136, 2-Cyclopropyl-5H-pyrrolo[2,3-b]pyrazine-7-carboxylic acid (1-acetyl-piperidin-3-ylmethyl)-amide]	283 nM
CC(C)c1cccc(-n2cnc(-c3cnc4[nH]cc(C(=O)N[C@@H](C)C(C)(C)C)c4n3)c2)c1 [Example I-152, 2-[1-(3-Isopropyl-phenyl)-1H-imidazol-4-yl]-5H-pyrrolo[2,3-b]pyrazine-7-carboxylic acid ((S)-1,2,2-trimethyl-propyl)-amide]	25.3 nM
C[C@H](NC(=O)c1c[nH]c2ncc(-c3cnn(C)c3)nc12)C1CCCCC1 [Example I-140, 2-(1-Methyl-1H-pyrazol-4-yl)-5H-pyrrolo[2,3-b]pyrazine-7-carboxylic acid ((S)-1-cyclohexyl-ethyl)-amide]	0.88 nM
C[C@@H](CO)NC(=O)c1c[nH]c2ncc(C3CC3)nc12 [Example I-57, 2-Cyclopropyl-5H-pyrrolo[2,3-b]pyrazine-7-carboxylic acid ((S)-2-hydroxy-1-methyl-ethyl)-amide]	217 nM
C=Cc1cnc2[nH]cc(C(=O)NCC(C)(C)CO)c2n1 [Example I-36, 2-Vinyl-5H-pyrrolo[2,3-b]pyrazine-7-carboxylic acid (3-hydroxy-2,2-dimethyl-propyl)-amide]	33.6 nM
CC(C)(C)[C@H](CC#N)NC(=O)c1c[nH]c2ncc(C3CC3)nc12 [Example I-77, 2-Cyclopropyl-5H-pyrrolo[2,3-b]pyrazine-7-carboxylic acid ((S)-1-cyanomethyl-2,2-dimethyl-propyl)-amide]	13.7 nM

Other lines, results leading:

IC50	Structure (SMILES)
3.05 nM	C[C@H](NC(=O)c1c[nH]c2ncc(-c3cccs3)nc12)C(C)(C)O [Example I-18, 2-Thiophen-2-yl-5H-pyrrolo[2,3-b]pyrazine-7-carboxylic acid ((S)-2-hydroxy-1,2-dimethyl-propyl)-amide]
0.52 nM	Cc1ccc([C@@H](C)NC(=O)c2ccc(-c3cnc4[nH]cc(C(=O)N[C@@H](C)C(C)(C)C)c4n3)s2)cc1 [Example I-202, 2-[5-((R)-1-p-Tolyl-ethylcarbamoyl)-thiophen-2-yl]-5H-pyrrolo[2,3-b]pyrazine-7-carboxylic acid ((S)-1,2,2-trimethyl-propyl)-amide]
3310 nM	CCNC(=O)c1c[nH]c2ncc(Oc3cccc(C#N)c3)nc12 [Example I-245, 2-(3-Cyano-phenoxy)-5H-pyrrolo[2,3-b]pyrazine-7-carboxylic acid ethylamide]
1070 nM	CCNC(=O)c1c[nH]c2ncc(Oc3cccc(Cl)c3)nc12 [Example I-244, 2-(3-Chloro-phenoxy)-5H-pyrrolo[2,3-b]pyrazine-7-carboxylic acid ethylamide]
2170 nM	CC(C)NC(=O)c1c[nH]c2ncc(Oc3ccccc3OC(F)(F)F)nc12 [Example I-253, 2-(2-Trifluoromethoxy-phenoxy)-5H-pyrrolo[2,3-b]pyrazine-7-carboxylic acid isopropylamide]
